Laboratory results reported in publication PMC8890504, “Evolution of Brain-Expressed Biogenic Amine Receptors into Olfactory Trace Amine-Associated Receptors” (Molecular Biology and Evolution, 2022).
Several values for one entry are separate records, joined by “and”; a condition that tells them apart may be missing. Identical values can stand only once.

Columns and labels:
TARLL1b = TARLL1b (Petromyzon marinus, UniProt A0AAJ7TCG4); test: Cell-based receptor activation reporter assay (SEAP / Dual-Glo luciferase); parameters: species or system sea lamprey; conditions: for EC50: TARLL1b
TARLL1b, sequence (A0AAJ7TCG4 entry or part of it): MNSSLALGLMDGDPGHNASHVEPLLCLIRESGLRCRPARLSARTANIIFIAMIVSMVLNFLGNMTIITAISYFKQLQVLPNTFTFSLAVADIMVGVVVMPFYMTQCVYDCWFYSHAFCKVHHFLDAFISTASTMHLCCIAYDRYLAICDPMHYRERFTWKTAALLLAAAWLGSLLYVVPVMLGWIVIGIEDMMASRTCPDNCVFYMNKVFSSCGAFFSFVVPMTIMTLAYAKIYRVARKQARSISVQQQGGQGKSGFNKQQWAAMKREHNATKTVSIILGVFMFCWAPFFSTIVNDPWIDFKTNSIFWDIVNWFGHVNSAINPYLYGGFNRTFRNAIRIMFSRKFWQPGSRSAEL
Procedure: (§1) Fluorescence was measured with a BioTek Microplate reader.

TARLL4a = TARLL4a (Petromyzon marinus, UniProt A0AAJ7T9R0); test: as above; parameters: species or system sea lamprey; conditions: for EC50: TARLL4a; for ligand profile of TARLL4a: ligand library at 100 µM, fig. 4B, fig. S9B
TARLL4a, sequence (A0AAJ7T9R0 entry or part of it): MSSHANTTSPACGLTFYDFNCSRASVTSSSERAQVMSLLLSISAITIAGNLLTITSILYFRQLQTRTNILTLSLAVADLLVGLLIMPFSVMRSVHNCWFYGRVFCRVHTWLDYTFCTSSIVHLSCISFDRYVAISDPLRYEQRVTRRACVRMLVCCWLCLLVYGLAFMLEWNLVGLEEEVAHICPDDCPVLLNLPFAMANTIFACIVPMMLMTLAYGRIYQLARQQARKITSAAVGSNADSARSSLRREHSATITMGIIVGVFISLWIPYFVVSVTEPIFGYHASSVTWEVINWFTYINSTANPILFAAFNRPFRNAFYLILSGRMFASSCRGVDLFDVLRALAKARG
Procedure: as §1

mouse HTR4 = mouse HTR4 (Mus musculus, UniProt P97288); test: cell-based
mouse HTR4, sequence (P97288 whole entry): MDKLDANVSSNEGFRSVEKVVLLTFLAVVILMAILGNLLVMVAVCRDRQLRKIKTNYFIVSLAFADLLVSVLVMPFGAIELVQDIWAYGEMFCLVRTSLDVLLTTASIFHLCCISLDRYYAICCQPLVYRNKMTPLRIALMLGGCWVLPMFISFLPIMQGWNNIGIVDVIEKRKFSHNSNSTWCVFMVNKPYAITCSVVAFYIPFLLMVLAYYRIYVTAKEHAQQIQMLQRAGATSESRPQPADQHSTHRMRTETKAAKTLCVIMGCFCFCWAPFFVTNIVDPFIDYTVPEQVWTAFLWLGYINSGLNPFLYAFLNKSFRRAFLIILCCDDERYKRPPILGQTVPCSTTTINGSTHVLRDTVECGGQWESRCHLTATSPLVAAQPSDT
Excerpt: (§2) Next, we conducted high-throughput screening to further explore the functional properties of these aminergic receptors. We cloned 248 TAARs from 11 mammals (human, mouse, rat, guinea pig, hamster, cat, horse, rabbit, sheep, rhesus, and wild boar), two reptiles (alligator and chicken), six teleosts (zebrafish, catfish, fugu, medaka, salmon, and pufferfish), one lobed-finned fish (coelacanth), one holost fish (spotted gar), and one cartilaginous fish (bamboo shark) (fig. 2A). We also cloned eight TARLs from coelacanth, zebrafish, catfish, fugu, medaka, spotted gar, shark, and 28 TARLLs from sea lamprey (supplementary table S2, Supplementary Material online). In addition, we cloned two HTR4s from mouse and zebrafish. We then challenged all of the cloned receptors with a ligand library comprised 97 amines at 100 µM.
(§3) HEK293 cells were plated onto poly-D-lysine (Sigma–Aldrich) preincubated 96-well plates (Corning) with 50 µl growth medium (DMEM medium with 10% BCS and 5% penicillin–streptomycin solution) and cultured for 18–24 h. Receptor plasmids were cotransfected with Cre-SEAP plasmid using polyethylenimine (PEI, Polysciences) and incubated at 37 °C with 5% CO2. About 4 h later, cells were incubated with or without test compounds diluted in serum-free DMEM for 48 h, followed by incubating for 2 h at 70 °C. After returning to room temperature, 50 µl supernatant from each well was incubated with an equal volume of 0.3 mM 4-methylumbelliferyl phosphate (4-MUP, Sigma–Aldrich) in 2 M diethanolamine bicarbonate (Sigma–Aldrich), pH 10.0 for 15 min. Fluorescence was measured with a BioTek Microplate reader.
(§4) Hana3A cells were plated onto 96-well plates (Greiner bio-one) with 50 µl growth medium (DMEM medium with 10% BCS and 5% penicillin–streptomycin solution with puromycin) and cultured at 37 °C with 5% CO2. After 18–24 h, cells in each well were cotransfected with 50 ng receptor plasmid, 10 ng CRE-Luc, 10 ng pRL-SV40, and 10 ng mRTPs using Lipofectamine 2000 (Invitrogen), and incubated for 18 h. Medium was then replaced by 25 µl CD293 (Invitrogen) containing 1% glutamine with or without test compounds for 4 h. The chemiluminescence of firefly luciferase and renilla luciferase were measured with a Biotek Microplate reader using the Dual-Glo Luciferase Assay System (Promega).

cat TAAR9 = test: Cell-based receptor activation reporter assay (SEAP / Dual-Glo luciferase); conditions: table S3
Procedure: as §1

hamster TAAR9 = biological target: T1, hamster TAAR9 (Mesocricetus auratus, UniProt A0A1U7R5X1); test: as above; conditions: table S3
T1 construct: Rho tag (N-terminal 20 aa of bovine rhodopsin); expressed in transfected cells; host or cells: HEK293T (SEAP assay) or Hana3A (Dual-Glo luciferase assay)
T1 sequence (A0A1U7R5X1 1-348): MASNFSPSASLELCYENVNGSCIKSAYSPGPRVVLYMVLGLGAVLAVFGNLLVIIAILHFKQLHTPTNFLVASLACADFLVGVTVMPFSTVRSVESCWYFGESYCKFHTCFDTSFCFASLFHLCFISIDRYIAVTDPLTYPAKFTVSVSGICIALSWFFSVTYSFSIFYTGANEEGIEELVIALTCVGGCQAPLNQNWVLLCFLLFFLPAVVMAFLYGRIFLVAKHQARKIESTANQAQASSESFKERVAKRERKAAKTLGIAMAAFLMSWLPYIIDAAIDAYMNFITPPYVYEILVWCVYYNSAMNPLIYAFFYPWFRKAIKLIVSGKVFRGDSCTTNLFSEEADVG
Procedure: as §1

rabbit TAAR9 = biological target: T2, rabbit TAAR9 (Oryctolagus cuniculus, UniProt G1SUU9); test: as above; conditions: table S3
T2 construct: Rho tag (N-terminal 20 aa of bovine rhodopsin); expressed in transfected cells; host or cells: HEK293T (SEAP assay) or Hana3A (Dual-Glo luciferase assay)
T2 sequence (G1SUU9 1-348): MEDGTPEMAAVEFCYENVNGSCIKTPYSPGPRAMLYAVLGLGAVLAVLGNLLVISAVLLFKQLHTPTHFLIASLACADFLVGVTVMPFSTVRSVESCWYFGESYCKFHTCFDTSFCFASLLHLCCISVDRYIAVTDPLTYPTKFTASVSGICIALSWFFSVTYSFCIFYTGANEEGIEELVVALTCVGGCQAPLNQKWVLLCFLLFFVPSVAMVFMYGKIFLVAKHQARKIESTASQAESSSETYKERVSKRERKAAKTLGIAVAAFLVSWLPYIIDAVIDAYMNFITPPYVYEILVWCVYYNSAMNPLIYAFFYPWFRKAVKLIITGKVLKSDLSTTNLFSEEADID
Procedure: as §1

rat TAAR9 = biological target: T3, rat TAAR9 (Rattus norvegicus, UniProt Q923Y6); test: as above; conditions: table S3
T3 construct: bovine rhodopsin N-terminal 20 amino acids (Rho tag); expressed in transfected cells; host or cells: HEK293(T) (SEAP assay) or Hana3A (Dual-Glo assay)
T3 sequence (Q923Y6 1-338): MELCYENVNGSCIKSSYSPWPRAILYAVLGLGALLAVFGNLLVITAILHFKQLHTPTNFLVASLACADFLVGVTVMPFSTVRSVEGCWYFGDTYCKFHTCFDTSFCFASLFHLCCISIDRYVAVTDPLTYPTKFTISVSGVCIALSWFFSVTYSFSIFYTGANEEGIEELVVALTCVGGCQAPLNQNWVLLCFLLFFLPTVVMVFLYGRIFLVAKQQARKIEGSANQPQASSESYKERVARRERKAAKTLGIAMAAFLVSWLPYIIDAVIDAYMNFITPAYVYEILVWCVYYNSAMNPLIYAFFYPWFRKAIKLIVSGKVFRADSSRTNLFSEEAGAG
Procedure: as §1

mouse TAAR9 = tested on: mouse TAAR9; parameters: method as in Saraiva et al. 2016; conditions: ref Saraiva et al. 2016; cited from earlier work
[1] = tested on: TARLL2a (also called TAAR346a); parameters: method as in Scott et al. 2019; conditions: ref Scott et al. 2019; cited from earlier work
zebrafish TAAR13c = tested on: zebrafish TAAR13c; parameters: method as in Hussain et al. 2013; conditions: ref Hussain et al. 2013; cited from earlier work
mouse TAAR1 = mouse TAAR1 (Mus musculus, UniProt Q923Y8); test: cell-based; conditions: for response of mouse TAAR1: ligands at 10 µM, luciferase assay, fig. 5B
mouse TAAR1, sequence (Q923Y8 whole entry): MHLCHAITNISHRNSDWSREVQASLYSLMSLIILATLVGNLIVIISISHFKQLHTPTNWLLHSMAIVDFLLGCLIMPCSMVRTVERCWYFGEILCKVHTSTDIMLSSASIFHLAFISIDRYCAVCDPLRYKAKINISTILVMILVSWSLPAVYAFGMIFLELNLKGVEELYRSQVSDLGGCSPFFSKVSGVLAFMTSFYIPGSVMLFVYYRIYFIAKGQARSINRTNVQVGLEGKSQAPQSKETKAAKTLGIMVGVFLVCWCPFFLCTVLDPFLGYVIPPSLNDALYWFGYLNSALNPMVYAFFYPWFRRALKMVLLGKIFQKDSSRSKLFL
Excerpt: as §2
We then compared the responses of HTR4 from mouse and zebrafish, TARL1 from zebrafish, catfish, fugu, medaka, spotted gar, and coelacanth, TARL2 from coelacanth and shark, TAAR1 from mouse and zebrafish to the 16 ligands at 10 µM (fig. 5B).
as §3, §4

guinea pig TAAR3 = guinea pig TAAR3 (Cavia porcellus, UniProt H0W7C9); test: Cell-based receptor activation reporter assay (SEAP / Dual-Glo luciferase)
guinea pig TAAR3, sequence (H0W7C9 entry or part of it): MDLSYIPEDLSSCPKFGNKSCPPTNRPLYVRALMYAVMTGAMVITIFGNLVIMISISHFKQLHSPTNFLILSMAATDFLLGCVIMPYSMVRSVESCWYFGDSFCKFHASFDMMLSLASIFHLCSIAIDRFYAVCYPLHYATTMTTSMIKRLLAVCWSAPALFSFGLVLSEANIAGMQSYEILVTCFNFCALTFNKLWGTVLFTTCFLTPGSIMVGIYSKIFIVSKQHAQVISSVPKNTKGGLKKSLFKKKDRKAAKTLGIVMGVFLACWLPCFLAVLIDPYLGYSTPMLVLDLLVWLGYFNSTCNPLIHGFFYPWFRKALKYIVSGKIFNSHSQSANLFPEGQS
Procedure: as §1

hamster TAAR3 = hamster TAAR3 (Mesocricetus auratus, UniProt A0A1U7Q6M0); test: as above
hamster TAAR3, sequence (A0A1U7Q6M0 entry or part of it): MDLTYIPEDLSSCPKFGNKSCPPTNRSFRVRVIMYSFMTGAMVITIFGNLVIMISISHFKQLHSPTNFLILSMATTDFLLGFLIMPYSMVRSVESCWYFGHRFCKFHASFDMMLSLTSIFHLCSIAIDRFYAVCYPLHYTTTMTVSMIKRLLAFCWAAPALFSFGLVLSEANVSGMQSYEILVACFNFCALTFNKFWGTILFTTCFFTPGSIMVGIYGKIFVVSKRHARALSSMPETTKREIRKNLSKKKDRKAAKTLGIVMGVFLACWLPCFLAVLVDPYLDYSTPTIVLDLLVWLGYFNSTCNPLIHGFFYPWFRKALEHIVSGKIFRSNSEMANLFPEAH
Procedure: as §1

TARLL3h = TARLL3h (Petromyzon marinus, UniProt A0A678XJN9); test: as above; parameters: species or system sea lamprey; conditions: for EC50: TARLL3h; for ligand recognition by TARLL3h: fig. 4C
TARLL3h, sequence (A0A678XJN9 entry or part of it): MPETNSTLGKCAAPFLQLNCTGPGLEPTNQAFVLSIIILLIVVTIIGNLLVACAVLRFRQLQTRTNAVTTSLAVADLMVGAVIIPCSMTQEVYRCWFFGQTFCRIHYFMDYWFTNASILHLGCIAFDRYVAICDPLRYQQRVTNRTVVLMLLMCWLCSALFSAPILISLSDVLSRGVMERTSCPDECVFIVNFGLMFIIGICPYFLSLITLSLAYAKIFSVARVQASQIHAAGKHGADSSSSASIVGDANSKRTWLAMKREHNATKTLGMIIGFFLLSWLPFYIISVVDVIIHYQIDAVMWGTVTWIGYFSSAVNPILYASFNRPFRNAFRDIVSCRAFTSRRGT
Procedure: as §1

TARLL3h D3.32A = test: Site-directed mutagenesis, cell-based receptor activation; parameters: species or system sea lamprey; conditions: mutation of Asp3.32 to alanine; ligand per fig. S9C
Procedure: (§5) Recognition of diamines in TAARs involves two aspartic acids, Asp^3.32 and Asp^5.42 ([Li et al. 2015]; [Sharma et al. 2016]). However, although Asp^3.32 is retained in TARLL3h, Asp^5.42 is not found, implying a distinct diamine recognition mechanism in TARLL3h. To investigate this further, we performed homology modeling and ligand docking in TARLL3h. In addition to Asp^3.32 that forms a salt bridge with N,N,N′,N′-tetramethyl-1,4-butanediamine or N,N,N′,N′-tetramethyl-1,3-propanediamine, Tyr^3.33 binds to the other amino group through pi–cation interactions in TARLL3h (fig. 4D). […] To verify the docking results, we performed site-directed mutagenesis in TARLL3h.
as §1

TARLL3h Y3.33A = test: as above; parameters: species or system sea lamprey; conditions: mutation of Tyr3.33 to alanine; ligand per fig. S9C
Procedure: as §5, §1

TARLL3h Y3.33F = test: as above; parameters: species or system sea lamprey; conditions: mutation of Tyr3.33 to phenylalanine; ligand per fig. S9C
Procedure: as §5, §1

shark TAARS1b = shark TAARS1b (Chiloscyllium punctatum, UniProt A0A401S5C1); test: Cell-based receptor activation reporter assay (SEAP / Dual-Glo luciferase); parameters: species or system bamboo shark
shark TAARS1b, sequence (A0A401S5C1 entry or part of it): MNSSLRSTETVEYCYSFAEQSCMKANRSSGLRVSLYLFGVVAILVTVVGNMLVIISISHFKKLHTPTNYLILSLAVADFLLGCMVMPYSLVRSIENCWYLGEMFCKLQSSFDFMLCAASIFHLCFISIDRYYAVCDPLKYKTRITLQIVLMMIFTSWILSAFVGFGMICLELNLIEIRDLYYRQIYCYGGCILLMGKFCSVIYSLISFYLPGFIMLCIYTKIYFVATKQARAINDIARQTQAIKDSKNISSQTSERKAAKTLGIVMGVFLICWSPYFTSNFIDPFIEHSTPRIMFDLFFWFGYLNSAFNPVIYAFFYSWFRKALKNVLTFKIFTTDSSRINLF
Procedure: as §1

sheep TAAR5 = sheep TAAR5 (Ovis aries, UniProt A0ACI6PZ16); test: as above
sheep TAAR5, sequence (A0ACI6PZ16 entry or part of it): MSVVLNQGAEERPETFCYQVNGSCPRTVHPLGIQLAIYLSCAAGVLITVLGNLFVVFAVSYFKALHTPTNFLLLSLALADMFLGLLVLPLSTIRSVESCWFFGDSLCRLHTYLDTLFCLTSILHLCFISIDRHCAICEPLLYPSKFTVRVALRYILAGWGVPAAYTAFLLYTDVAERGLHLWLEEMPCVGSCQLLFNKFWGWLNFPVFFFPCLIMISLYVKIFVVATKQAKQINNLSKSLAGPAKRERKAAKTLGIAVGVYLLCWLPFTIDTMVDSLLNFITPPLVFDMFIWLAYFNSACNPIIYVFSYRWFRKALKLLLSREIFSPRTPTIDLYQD
Procedure: as §1

(UniProt Z9G6W3R3V9) = test: as above; conditions: coelacanth TARL1
Procedure: as §1

coelacanth TAARC1b = coelacanth TAARC1b (Latimeria chalumnae, UniProt H3A8V0); test: as above
coelacanth TAARC1b, sequence (H3A8V0 entry or part of it): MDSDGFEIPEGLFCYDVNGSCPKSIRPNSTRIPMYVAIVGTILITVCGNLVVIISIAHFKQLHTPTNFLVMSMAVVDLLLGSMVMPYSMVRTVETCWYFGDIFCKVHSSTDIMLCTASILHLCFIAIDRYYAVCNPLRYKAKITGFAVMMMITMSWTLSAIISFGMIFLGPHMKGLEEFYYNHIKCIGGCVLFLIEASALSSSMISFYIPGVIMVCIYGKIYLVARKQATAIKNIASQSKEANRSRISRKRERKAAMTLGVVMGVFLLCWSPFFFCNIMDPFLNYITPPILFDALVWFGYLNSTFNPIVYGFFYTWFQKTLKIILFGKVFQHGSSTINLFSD
Procedure: as §1

coelacanth TARL2 = coelacanth TARL2 (Latimeria chalumnae, UniProt H3AWX3); test: as above
coelacanth TARL2, sequence (H3AWX3 entry or part of it): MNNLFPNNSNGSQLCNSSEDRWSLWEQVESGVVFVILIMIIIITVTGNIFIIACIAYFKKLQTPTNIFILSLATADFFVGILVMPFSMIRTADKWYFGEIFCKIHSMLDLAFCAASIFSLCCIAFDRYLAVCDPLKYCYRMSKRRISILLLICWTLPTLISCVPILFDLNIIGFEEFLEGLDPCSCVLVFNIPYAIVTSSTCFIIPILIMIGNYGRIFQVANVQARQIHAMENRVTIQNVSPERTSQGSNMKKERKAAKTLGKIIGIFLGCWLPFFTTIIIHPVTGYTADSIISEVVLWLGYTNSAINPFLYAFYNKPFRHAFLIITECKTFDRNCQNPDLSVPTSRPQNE
Procedure: as §1

zebrafish TAAR1 = zebrafish TAAR1 (Danio rerio, UniProt Q5QNN1); test: as above; conditions: zTAAR1
zebrafish TAAR1, sequence (Q5QNN1 entry or part of it): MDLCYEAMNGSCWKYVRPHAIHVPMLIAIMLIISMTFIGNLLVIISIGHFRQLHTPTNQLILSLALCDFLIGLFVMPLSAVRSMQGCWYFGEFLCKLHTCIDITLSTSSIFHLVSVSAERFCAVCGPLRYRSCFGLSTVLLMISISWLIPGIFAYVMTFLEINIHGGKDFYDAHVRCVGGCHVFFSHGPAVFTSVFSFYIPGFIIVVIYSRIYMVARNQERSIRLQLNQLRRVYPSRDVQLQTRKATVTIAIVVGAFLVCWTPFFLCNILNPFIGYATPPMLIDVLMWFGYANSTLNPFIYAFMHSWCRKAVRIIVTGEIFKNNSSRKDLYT
Procedure: as §1

zebrafish TARL1 = zebrafish TARL1 (Danio rerio, UniProt A0A8M1Q794); test: as above
zebrafish TARL1, sequence (A0A8M1Q794 entry or part of it): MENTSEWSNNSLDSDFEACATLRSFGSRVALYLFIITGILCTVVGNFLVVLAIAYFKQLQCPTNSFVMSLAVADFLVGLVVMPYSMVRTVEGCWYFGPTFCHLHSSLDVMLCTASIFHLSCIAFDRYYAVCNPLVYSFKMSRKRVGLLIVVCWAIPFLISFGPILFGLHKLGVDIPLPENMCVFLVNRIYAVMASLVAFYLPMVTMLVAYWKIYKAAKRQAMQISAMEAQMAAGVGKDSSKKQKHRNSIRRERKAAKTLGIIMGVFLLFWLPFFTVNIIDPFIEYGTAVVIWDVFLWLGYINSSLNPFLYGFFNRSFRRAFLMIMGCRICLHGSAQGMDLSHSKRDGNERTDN
Procedure: as §1

Cn1ccc2ccccc21 [1-methylindole]
EC50 (TARLL1b): 162 µM

Cc1c[nH]c2ccccc12 [3-methylindole]
EC50 (TARLL1b): 6.6 µM

CSCCCN [3-methylthiopropylamine]
EC50 (TARLL4a): 62.4 µM

NCCCCCO [5-amino-1-pentanol]
EC50 (TARLL4a): 40.3 µM

COc1ccc2[nH]cc(CCN)c2c1 [5-methoxytryptamine]
EC50 (mouse HTR4): 90 nM

Cc1ccc2[nH]ccc2c1 [5-methylindole]
EC50 (TARLL1b): 8.9 µM

Cc1ccc2cc[nH]c2c1 [6-methylindole]
EC50 (TARLL1b): 9.1 µM

Cc1cccc2cc[nH]c12 [7-methylindole]
EC50 (TARLL1b): 37.8 µM

CCCCCN [Amylamine, amylamine]
EC50 (TARLL4a): 10.6 µM

CCCCN [Butylamine, butylamine]
EC50 (TARLL4a): 73.5 µM

NCCCCCN [Cadaverine, cadaverine]
activation of TAAR9 (cat TAAR9): activation
activation of TAAR9 (hamster TAAR9): activation
activation of TAAR9 (rabbit TAAR9): activation
activation of TAAR9 (rat TAAR9): activation
ligand recognition by mouse TAAR9 (mouse TAAR9): can recognize
ligand recognition by TARLL2a [1]: recognize
activation of TAAR13c (zebrafish TAAR13c): activates

NC1CCCC1 [Cyclopentylamine, cyclopentylamine]
EC50 (TARLL4a): 113 µM

CCCCCCN [Hexylamine, hexylamine]
EC50 (TARLL4a): 20.4 µM
ligand profile of TARLL4a (TARLL4a): ligand profile includes
response of mouse TAAR1 (mouse TAAR1): slight responses

c1ccc2[nH]ccc2c1 [Indole, indole]
EC50 (TARLL1b): 18.9 µM
activation of TARLL1b (TARLL1b; fig. 4E, fig. S9D and E): can be activated

CC(C)CCN [Isoamylamine, isoamylamine]
EC50 (TARLL4a): 141 µM
EC50 (guinea pig TAAR3): 200 µM and ~200 µM
EC50 (hamster TAAR3): 300 µM and ~300 µM

CC(C)CN [Isobutylamine, isobutylamine]
EC50 (TARLL4a): 199 µM

CC(C)N [Isopropylamine, isopropylamine]
EC50 (TARLL4a): 254 µM
ligand profile of TARLL4a (TARLL4a): ligand profile includes

CN(C)CCCN(C)C [N,N,N',N'-tetramethyl-1,3-propanediamine, N,N,N′,N′-Tetramethyl-1,3-propanediamine]
EC50 (TARLL3h): 116 µM
ligand recognition by TARLL3h (TARLL3h): recognizes

CN(C)CCCCN(C)C [N,N,N',N'-tetramethyl-1,4-butanediamine, N,N,N′,N′-tetramethyl-1,4-butanediamine]
EC50 (TARLL3h): 40.4 µM
ligand recognition by TARLL3h (TARLL3h): recognizes
receptor activity of TARLL3h mutant D3.32A (TARLL3h D3.32A): completely eliminated the receptor activity
receptor activity of TARLL3h mutant Y3.33A (TARLL3h Y3.33A): completely eliminated the receptor activity
EC50 of TARLL3h mutant Y3.33F relative to wild type receptor (TARLL3h Y3.33F): EC50 three times higher than wild type receptor

CC(C)N(C)C [N,N-dimethylisopropylamine]
EC50 (shark TAARS1b): 40.3 µM
EC50 (sheep TAAR5): 50 µM and ~50 µM

CCCN [Propylamine, propylamine]
EC50 (TARLL4a): 133 µM

NCCc1c[nH]c2ccc(O)cc12 [Serotonin, serotonin]
EC50 (TARLL1b): 0.2 µM
EC50 (mouse TAAR1; mTAAR1): 14.4 µM
EC50 ((UniProt Z9G6W3R3V9)): 100 nM
EC50 (coelacanth TAARC1b): 830 nM and 800 nM
EC50 (coelacanth TARL2): 390 nM
EC50 (zebrafish TAAR1): 2350 nM
EC50 (zebrafish TARL1): 110 nM

NC1CCCCC1 [cyclohexylamine]
ligand profile of TARLL4a (TARLL4a): ligand profile includes

CCCCCCCN [heptylamine]
ligand profile of TARLL4a (TARLL4a): ligand profile includes
response of mouse TAAR1 (mouse TAAR1): slight responses

CCCCCCCCN [octylamine]
response of mouse TAAR1 (mouse TAAR1): slight responses

NCCCCNCCCN [spermidine]
activation of TAAR9 (cat TAAR9): activation
activation of TAAR9 (hamster TAAR9): activation
activation of TAAR9 (rabbit TAAR9): activation
activation of TAAR9 (rat TAAR9): activation
ligand recognition by mouse TAAR9 (mouse TAAR9): can recognize

NCCCNCCCCNCCCN [spermine]
activation of TAAR9 (cat TAAR9): activation
activation of TAAR9 (hamster TAAR9): activation
activation of TAAR9 (rabbit TAAR9): activation
activation of TAAR9 (rat TAAR9): activation
ligand recognition by mouse TAAR9 (mouse TAAR9): can recognize
ligand recognition by TARLL2a [1]: recognize
